Test results reported in ChEMBL document CHEMBL5365398, “Structure-activity relationship study of central pyridine-derived TYK2 JH2 inhibitors: Optimization of the PK profile through C4' and C6 variations” (Bioorg Med Chem Lett, 2023).

Key:
in vivo [1] = settings: mouse, po, 10 mg/kg
in vitro [2] = settings: human, Caco-2
in vitro [3] = settings: rat, liver microsomes
in vivo [4] = settings: mouse, po, 10 mg/kg; remark: listed apart in the source
in vitro [5] = settings: mouse, liver microsomes
in vitro [6] = settings: mouse, liver microsomes; remark: listed apart in the source
in vitro [7] = settings: rat, liver microsomes; remark: listed apart in the source
in vivo [8] = settings: mouse, po, 10 mg/kg; remark: listed apart in the source
in vitro [9] = settings: human, liver microsomes
in vitro [10] = settings: human, liver microsomes; remark: listed apart in the source

Question: For `[2H]C([2H])([2H])NC(=O)c1nnc(Nc2ccc(C(C)(C)O)cn2)cc1Nc1nccc(-c2ncc(F)cn2)c1OC`, which Cmax (in vivo [1]) is on record?
Answer: Its Cmax is 15.2 µM.

Question: What about the Papp A→B (in vitro [2]) of the same compound?
Answer: Its Papp A→B is 9.7 ×10⁻⁶ cm/s.

Question: And the remaining at 10 min, 0.5 µM (in vitro [3])?
Answer: The remaining at 10 min, 0.5 µM was 100%.

Question: What about the AUC(0-t) (in vivo [4]) of the same compound?
Answer: The AUC(0-t) was 34.2 µM·h.

Question: What about the remaining at 10 min, 0.5 µM (in vitro [5]) of the same compound?
Answer: The remaining at 10 min, 0.5 µM was 83%.

Question: And the half-life (in vitro [6])?
Answer: The half-life was greater than 120 min.

Question: What about the half-life (in vitro [7]) of the same compound?
Answer: The half-life was greater than 120 min.

Question: What about the bioavailability (in vivo [8]) of the same compound?
Answer: The bioavailability was 94%.

Question: What about the remaining at 10 min, 0.5 µM (in vitro [9]) of the same compound?
Answer: The remaining at 10 min, 0.5 µM was 100%.

Question: What about the half-life (in vitro [10]) of the same compound?
Answer: Its half-life is greater than 120 min.

Question: With `[2H]C([2H])([2H])NC(=O)c1nnc(Nc2cccc(OC)n2)cc1Nc1nccc(-c2ncn(C)n2)c1OC` as the compound, how does the remaining at 10 min, 0.5 µM (in vitro [3]) read?
Answer: Its remaining at 10 min, 0.5 µM is 71%.

Question: And the remaining at 10 min, 0.5 µM (in vitro [5])?
Answer: The remaining at 10 min, 0.5 µM was 65%.

Question: What about the remaining at 10 min, 0.5 µM (in vitro [9]) of the same compound?
Answer: Its remaining at 10 min, 0.5 µM is 88%.

Question: For `[2H]C([2H])([2H])NC(=O)c1nnc(NC(=O)C2CC2)cc1Nc1nccc(-c2ncc(F)cn2)c1OC`, which Papp A→B (in vitro [2]) is on record?
Answer: Its Papp A→B is 34.5 ×10⁻⁶ cm/s.

Question: And the remaining at 10 min, 0.5 µM (in vitro [3])?
Answer: Its remaining at 10 min, 0.5 µM is 100%.

Question: What about the remaining at 10 min, 0.5 µM (in vitro [5]) of the same compound?
Answer: The remaining at 10 min, 0.5 µM was 100%.

Question: And the remaining at 10 min, 0.5 µM (in vitro [9])?
Answer: Its remaining at 10 min, 0.5 µM is 89%.
